According to US20260151518A1, “LEUKOCYTE-SPECIFIC CELL PENETRATING MOLECULES” (Amytrx Therapeutics, Inc., priority 2021, published 2026):

Assays:
[1] = Concentrations of radioactivity in whole blood, plasma, WBC depleted blood and recovered white blood cells after single subcutaneous administration of [3H]-AMTX-100; format: in vivo, rat; design: key to Concentration of radioactivity in Recovered White Blood Cells: BLQ: Below limit of accurate quantification; conditions: 5 mg/kg; for Concentration of radioactivity in WBC depleted blood / Concentration of radioactivity in Whole Blood / Concentration of radioactivity in Plasma / Concentration of radioactivity in Recovered White Blood Cells: rat; for Concentration of radioactivity in Plasma: plasma not depleted of white blood cells; for Concentration of radioactivity in Recovered White Blood Cells: reverse wash of filters; for Cmax, total radioactivity: male non-pigmented rats
Method: [^3H]-NSP labelling. For the main phase of the study, the test protein was prepared, radiolabeled with N-succinimidyl-[2,3-3H]-propionate ([^3H]-NSP) and purified as described below.
Three aliquots of 1.6 mL [^3H]-NSP solution were dispensed into appropriate vials. The solvent was evaporated under a gentle stream of nitrogen gas at ambient temperature. Once enough of the solvent had been evaporated, the three aliquots were combined into one vial and the remaining solvent evaporated until dryness. The residue in the vial was re-suspended in 0.6 mL of 1 mg/mL AMTX-100 by gently vortex mixing to ensure complete mixing of the protein with the labelling reagent. The solutions were allowed to stand at ambient temperature for approximately 1 hour.
The [^3H]-NSP-protein solutions were then purified by reverse phase chromatography techniques and the resulting solution was frozen and lyophilized using a freeze drier. The resulting material was dissolved in 2 mL ethanol:water (50:50) and stored at approximately −20° C. prior to formulation for dose preparation.
Formulation. The required quantities of each radiolabeled test item were combined with the corresponding non-labelled test item as appropriate to achieve a radioactive concentration sufficient to meet the aims of the study. Dose solutions were prepared in PBS buffer pH 7.4, with the intention of administering a total dose volume of […], (2.5 ml/kg, […]).
(§1) Whole blood was collected into tubes containing K2-EDTA as anticoagulant. Following collection, an aliquot of whole blood (approximately 4 mL) was retained for analysis of whole blood and white blood cell (WBC) concentrations. The remaining whole blood samples were processed to plasma. Plasma samples were not depleted of white blood cells.
AMTX-100 was radiolabeled with 3H at lysine residues and injected into Sprague-Dawley rats in a single dose by seven different routes (intravenous, subcutaneous, topical [skin], intratracheal, intraduodenal, esophageal, and oral). The rats were evaluated at various time points, up to 120 hours, by: a) blood samples were taken for pharmacokinetics (PK) by cardiac puncture; b) rats were frozen and sectioned for QWBA and/or micro-auto-radiography and histology; and c) frozen sections were made and freeze dried and exposed to phosphor-storage imaging plates and tissue radioactivity in images was quantified as tissue: blood ratios.
For all PK studies, the following definitions were used: WB=whole blood; Plasma=whole blood depleted of red blood cells; WBCD=whole blood depleted of white blood cells in which the whole blood is passed over a Pall Acrodisc filter (about 60% efficient); WBCs=the cells which bind to, and are washed off, the Pall Acrodisc filter.

[2] = Blood partition calculation after single administration of [3H]-AMTX-100; format: in vivo; design: Partition coefficient / Non-plasma compartment: unit not given here; conditions: single intravenous (title), 5 mg/kg, rat
Method: Eight male Sprague Dawley rats each received a single IV administration of [^3H]-AMTX-100 and a terminal sample of whole blood (each approximately 5-10 mL) was collected via cardiac puncture under isofluorane anesthesia from a single rat at the following time points: […]
as §1

SMILES: CSCC[C@@H]1NC(=O)[C@H](CC(C)C)NC(=O)[C@H](CCCCN)NC(=O)[C@H](CCC(N)=O)CC(=O)[C@H](CCCNC(=N)N)NC(=O)[C@H](CCCCN)NC(=O)[C@H](CCCNC(=N)N)NC(=O)[C@H](CCC(N)=O)NC(=O)[C@H](C(C)C)NC(=O)[C@@H](NC(=O)[C@@H]2CCCN2C(=O)[C@H](C)NC(=O)[C@H](CC(C)C)NC(=O)[C@H](CC(C)C)NC(=O)[C@H](C)NC(=O)[C@H](CC(C)C)NC(=O)[C@H](CC(C)C)NC(=O)[C@@H](NC(=O)[C@H](C)NC(=O)[C@@H]2CCCN2C(=O)[C@H](CC(C)C)NC(=O)[C@H](CC(C)C)NC(=O)[C@H](C)NC(=O)[C@@H](NC(=O)[C@H](C)NC(=O)[C@H](C)N)C(C)C)C(C)C)CSSC[C@@H](C(=O)O)NC(=O)[C@@H]2CCCN2C1=O [[^3H]-AMTX-100]
- Concentration of radioactivity in WBC depleted blood ([1]; 1 h): 0.015 μg equivalents/mL
- Concentration of radioactivity in Whole Blood ([1]; 1 h): 0.081 μg equivalents/mL
- Concentration of radioactivity in Plasma ([1]; 1 h): 0.110 μg equivalents/mL
- Concentration of radioactivity in Recovered White Blood Cells ([1]; 1 h): BLQ
- Concentration of radioactivity in WBC depleted blood ([1]; 2 h): 0.011 μg equivalents/mL
- Concentration of radioactivity in Whole Blood ([1]; 2 h): 0.059^3 μg equivalents/mL
- Concentration of radioactivity in Plasma ([1]; 2 h): 0.084 μg equivalents/mL
- Concentration of radioactivity in Recovered White Blood Cells ([1]; 2 h): BLQ
- Concentration of radioactivity in WBC depleted blood ([1]; 4 h): 0.011 μg equivalents/mL
- Concentration of radioactivity in Whole Blood ([1]; 4 h): 0.054 μg equivalents/mL
- Concentration of radioactivity in Plasma ([1]; 4 h): 0.068 μg equivalents/mL
- Concentration of radioactivity in Recovered White Blood Cells ([1]; 4 h): BLQ
- Concentration of radioactivity in WBC depleted blood ([1]; 8 h): 0.011 μg equivalents/mL
- Concentration of radioactivity in Whole Blood ([1]; 8 h): 0.070 μg equivalents/mL
- Concentration of radioactivity in Plasma ([1]; 8 h): 0.090 μg equivalents/mL
- Concentration of radioactivity in Recovered White Blood Cells ([1]; 8 h): BLQ
- Concentration of radioactivity in WBC depleted blood ([1]; 24 h): 0.021 μg equivalents/mL
- Concentration of radioactivity in Whole Blood ([1]; 24 h): 0.120 μg equivalents/mL
- Concentration of radioactivity in Plasma ([1]; 24 h): 0.146 μg equivalents/mL
- Concentration of radioactivity in Recovered White Blood Cells ([1]; 24 h): BLQ
- Concentration of radioactivity in WBC depleted blood ([1]; 48 h): 0.033 μg equivalents/mL
- Concentration of radioactivity in Whole Blood ([1]; 48 h): 0.186 μg equivalents/mL
- Concentration of radioactivity in Plasma ([1]; 48 h): 0.221 μg equivalents/mL
- Concentration of radioactivity in Recovered White Blood Cells ([1]; 48 h): BLQ
- Cmax, total radioactivity ([1]; Plasma): 221 ng/mL
- Cmax, total radioactivity ([1]; WBCD blood): 33 ng/mL
- Cmax, total radioactivity ([1]; Whole blood): 186 ng/mL
- Blood ([2]; 1 h): 0.081 µg/mL
- Non-plasma compartment ([2]; 1 h): 11.7
- Partition coefficient ([2]; 1 h): 88.3
- Plasma ([2]; 1 h): 0.110 µg/mL
- Blood ([2]; 2 h): 0.059^1 μg/mL
- Non-plasma compartment ([2]; 2 h): 20.3
- Partition coefficient ([2]; 2 h): 79.7
- Plasma ([2]; 2 h): 0.084 µg/mL
- Blood ([2]; 4 h): 0.054 µg/mL
- Non-plasma compartment ([2]; 4 h): 24.4
- Partition coefficient ([2]; 4 h): 75.6
- Plasma ([2]; 4 h): 0.068 µg/mL
- Blood ([2]; 8 h): 0.070 µg/mL
- Non-plasma compartment ([2]; 8 h): 22.9
- Partition coefficient ([2]; 8 h): 77.1
- Plasma ([2]; 8 h): 0.090 µg/mL
- Blood ([2]; 24 h): 0.120 µg/mL
- Non-plasma compartment ([2]; 24 h): 27.0
- Partition coefficient ([2]; 24 h): 73.0
- Plasma ([2]; 24 h): 0.146 µg/mL
- Blood ([2]; 48 h): 0.186 µg/mL
- Non-plasma compartment ([2]; 48 h): 28.7
- Partition coefficient ([2]; 48 h): 71.3
- Plasma ([2]; 48 h): 0.221 µg/mL
